The numbers were not newly measured in US6423302B1, “Use of octocrylene for solubilizing 2,4-bis{[4-(2-ethyl-hexyloxy)-2-hydroxy]-phenyl}-6-(4-methoxyphenyl)-1,3,5-triazine in cosmetic or dermatological light protection compositions” (Beiersdorf AG, priority 1999, dated 2002), which cites them from elsewhere.

SMILES strings stand for the structures.

The conditions of this data set: prior-art statement.

In the case of `CCCCC(CC)COc1ccc(-c2nc(-c3ccc(OC)cc3)nc(-c3ccc(OCC(CC)CCCC)cc3O)n2)c(O)c1` (centres unmarked) [2,4-bis-{[4-(2-ethylhexyloxy)-2-hydroxy]phenyl}-6-(4-methoxyphenyl)-1,3,5-triazine], under “known solvents for this UV filter (lipids)”, the “maximum amount of this filter that known solvents can dissolve” value is on record as at most 10 % by weight. In addition, the solubility in lipids entry (stated as main disadvantage) is given as “poor solubility in lipids”.
